The first assay has as its system adjuvant-induced arthritis. In words: Developing Adjuvant-Induced Arthritis Test in Rats. The format is in vivo, male Lewis-Wistar rats. The following applies: Rattus norvegicus, po, 720 h; 25 mg/kg P.O. x 29; AUC of uninjected paw volumes, Days 16 through 30; read-out: % Inhibition of Uninjected Paw Volume Inflammation.
As to `CCCNN1CSC(=Cc2cc(C(C)(C)C)c(O)c(C(C)(C)C)c2)C1=O` [Example 51, 5-{[3,5-bis(1,1-dimethylethyl)-4-hydroxyphenyl]methylene}-3-(propylamino)-4-thiazolidinone], the inhibition in vivo at 25 mg/kg was 39%.

Staying with this assay, now noted: Rattus norvegicus, po, 720 h; 50 mg/kg P.O. x 29; AUC of uninjected paw volumes, Days 16 through 30; read-out: % Inhibition of Uninjected Paw Volume Inflammation.
Consider `CC(C)(C)c1cc(C=C2SCN(NCCO)C2=O)cc(C(C)(C)C)c1O` [Example 55, 5-{[3,5-bis(1,1-dimethylethyl)-4-hydroxyphenyl]methylene}-3-[(2-hydroxyethyl)amino]-4-thiazolidinone], for which the inhibition in vivo at 50 mg/kg turned out to be 96.2%.
The same measure, in the same setting: the figure for `CC(C)(C)c1cc(C=C2SCN(C3CC3)C2=O)cc(C(C)(C)C)c1O` [Example 20, 5-{[3,5-bis(1,1-dimethylethyl)-4-hydroxyphenyl]methylene}-3-cyclopropyl-4-thiazolidinone] is 36%; for `CC(C)(C)c1cc(C=C2SCN(N3CCCCC3)C2=O)cc(C(C)(C)C)c1O` [Example 44, 5-{[3,5-bis(1,1-dimethylethyl)-4-hydroxyphenyl]methylene}-3-(1-piperidinyl)-4-thiazolidinone] it is 15%.
As to `CCCNCCN1CSC(=Cc2cc(C(C)(C)C)c(O)c(C(C)(C)C)c2)C1=O` [Example 54, 5-{[3,5-bis(1,1-dimethylethyl)-4-hydroxyphenyl]methylene}-3-[2-(propylamino)ethyl]-4-thiazolidinone], the inhibition in vivo at 50 mg/kg was 37.6%.
As for `CNN1CSC(=Cc2cc(C(C)(C)C)c(O)c(C(C)(C)C)c2)C1=O` [Example 47, 5-{[3,5-bis(1,1-dimethylethyl)-4-hydroxyphenyl]methylene}-3-(methylamino)-4-thiazolidinone], the inhibition in vivo at 50 mg/kg came out at 69.3%.
As to `CC(C)(C)c1cc(C=C2SCN(CCN)C2=O)cc(C(C)(C)C)c1O` [Example 27, 5-{[3,5-bis(1,1-dimethylethyl)-4-hydroxyphenyl]methylene}-3-(2-aminoethyl)-4-thiazolidinone], the inhibition in vivo at 50 mg/kg is 40%.
On to `CC(=O)OCCCc1cc(C=C2SCN(C)C2=O)cc(CCCOC(C)=O)c1O` [Example 63, 5-{[3,5-bis[3-(acetyloxy)propyl]-4-hydroxyphenyl]methylene}-3-methyl-4-thiazolidinone], for which the inhibition in vivo at 50 mg/kg worked out at 9.8%.
`CN1CSC(=Cc2ccc(O)c(C(C)(C)C)c2)C1=O` [Example 66, 5-{[3-(1,1-dimethylethyl)-4-hydroxyphenyl]-methylene}-3-methyl-4-thiazolidinone]: the inhibition in vivo at 50 mg/kg was 26.1%.
As to `CCCc1cc(C=C2SCN(C)C2=O)cc(CCC)c1O` [Example 56, 5-[(4-hydroxy-3,5-dipropylphenyl)methylene]-3-methyl-4-thiazolidinone], the inhibition in vivo at 50 mg/kg is 38.2%.
Take `CN1CCN(N2CSC(=Cc3cc(C(C)(C)C)c(O)c(C(C)(C)C)c3)C2=O)CC1` [Example 43, 5-{[3,5-bis(1,1-dimethylethyl)-4-hydroxyphenyl]methylene}-3-(4-methyl-1-piperazinyl)-4-thiazolidinone]: the inhibition in vivo at 50 mg/kg worked out at 36%.
In the case of `Cc1cc(C=C2SCN(C)C2=O)cc(C)c1O` [Example 68, 5-[(4-hydroxy-3,5-dimethylphenyl)methylene]-3-methyl-4-thiazolidinone], the inhibition in vivo at 50 mg/kg is 6.5%.
Consider `CCN(C)N1CSC(=Cc2cc(C(C)(C)C)c(O)c(C(C)(C)C)c2)C1=O` [Example 40, 5-{[3,5-bis(1,1-dimethylethyl)-4-hydroxyphenyl]methylene}-3-(ethylmethylamino)-4-thiazolidinone], for which the inhibition in vivo at 50 mg/kg stood at 23%.
In the case of `Cc1cc(C=C2SC(=S)N(N(C)C)C2=O)cc(C(C)(C)C)c1O` [Example 60, 5-{[3-(1,1-dimethylethyl)-4-hydroxy-5-methylphenyl]methylene}-3-dimethylamino-2-thioxo-4-thiazolidinone], the inhibition in vivo at 50 mg/kg is 40.6%.
For the molecule `CC(C)(C)c1cc(CC2SC(=S)NC2=O)cc(C(C)(C)C)c1O` (stereo not drawn) [Example 8, 5-{[3,5-bis(1,1-dimethylethyl)-4-hydroxyphenyl]methyl}-2-thioxo-4-thiazolidinone], the inhibition in vivo at 50 mg/kg worked out at 4%.

(Values after patent EP0391644B1, “Aryl-substituted rhodanine derivatives” (ELI LILLY AND COMPANY, priority 1989, dated 1990).)
